Data as given in patent publication US10406227B2, “Photoactivated molecules for light-induced modulation of the activity of electrically excitable cells and methods of using same” (University of Southern California, priority 2012, dated 2019).
“Also recorded” adds a separate entry of the source.

Key:
[1] = tested on: INS cells; experiment: Imaging RubpyC17 in live cells (membrane luminescence); assay type: cell-based, rat
Procedure: Cells were imaged at 1-3 days after plating. The glass-bottomed chambers with adherent cells were washed twice with PBS and then filled with standard extracellular solution consisting of 140 mM NaCl, 2.8 mM KCl, 10 mM HEPES, 1 mM MgCl2, 2 mM CaCl2, and 10 mM glucose, pH adjusted to 7.2-7.4 and osmolarity adjusted to 290-310 mOsm. The chamber was then mounted on an Olympus IX70 inverted microscope stage for imaging, using a Cascade 512B EMCCD camera, operated by Metamorph software. Initial imaging was done with cells in extracellular solution without RubpyC17, first under brightfield to evaluate cell health and morphology, then under widefield argon ion laser illumination at 488 nm (Coherent, Innova 90-5, Santa Clara, Calif.), to evaluate autofluorescence. Next, the extracellular solution was removed and replaced with extracellular solution containing the RubpyC17 compound (10 μM in ≤0.01% DMSO, final concentrations). Cell images were then acquired with illumination at 488 nm (collected with a long-pass red emission filter). For electrophysiological experiments, RubpyC17 compound was added to the extracellular solution (2-10 μM in ≤0.01% DMSO, final concentrations as indicated) and cells were incubated for 1.5-45 min, as indicated, then washed with extracellular solution without RubpyC17. Some chromaffin cells were also exposed continuously to 490-900 nM RubpyC17-containing extracellular solution.
Illustrated here are rat insulinoma INS cells (FIG. 1C, top), human embryonic kidney (HEK293T) cells (FIG. 1C, middle), and primary cultured mouse chromaffin cells (FIG. 1C, bottom). […] All cell types preserved morphology for at least 10 minutes. […] One embodiment of the possible light-induced electron transfer is depicted in FIG. 1D.

[2] = tested on: INS and HEK293T cells; experiment: Time course of light-induced membrane potential change in single cells (patch clamp); assay type: cell-based
Procedure: Membrane potential was monitored using whole cell patch clamp in current-clamp mode. Cultured cells (INS and HEK293) were plated on a glass-bottomed culture dishes 1-3 days prior to recording. Cells were incubated in standard extracellular solution with or without 10 μM RubpyC17 compound for approximately 1.5-2 minutes, then washed and incubated with standard extracellular solution without additional supplementation, or with 2-5 mM ascorbate, 100 μM sodium ferrocyanide, or 100-200 μM potassium ferricyanide, as indicated. The chamber was transferred to the microscope stage. Extracellular solution consisted of 140 mM NaCl, 2.8 mM KCl, 10 mM HEPES, 1 mM MgCl2, 2 mM CaCl2, 10 mM glucose, pH adjusted to 7.3, and osmolarity adjusted to 300-310. Conventional whole-cell patch clamp recordings were performed with an EPC-9 amplifier and Pulse software (HEKA Electronics). Pipette electrodes of 1.8-3.5 Mohm were fire polished before use. Intracellular solution consisted of: 145 mM KCl, 10 mM NaCl, 1 mM MgCl2, 1 mM EGTA, 2 mM ATP, 0.3 mM GTP and 10 mM HEPES, pH adjusted to 7.3 and osmolarity adjusted to 290-300 mOsm. To monitor changes in membrane voltage/potential, cells were patch clamped in current-clamp mode. Access resistances were in the range of 3-8 Mohm. Using Pulse, membrane potentials were recorded before, during and after illumination by the argon ion laser at 488 nm with an irradiance value of 0.458 mE s^−1 m^−2 or by a xenon lamp source through a 470/40 nm bandpass excitation filter with an irradiance value of 0.480 mE s^−1 m^−2. The duration of illumination varied and the timing is indicated by bars on the figures.
It was discovered that luminescent cells undergo depolarization when illuminated for 25 seconds or longer when reductants (e.g., ascorbate) are present or for 10 seconds or longer when oxidants (e.g., ferricyanide) are present (FIG. 2A). Other oxidants or reductants are used in several embodiments, such as those that are, normally present (or biologically compatible) in the environment of a certain target tissue. In several embodiments, it is possible that light-induced depolarization or hyperpolarization amplitude or rate is controlled by varying illumination time or intensity.
To reach a maximum effect, the light-triggered depolarization in RubpyC17-treated cells requires on the order of 30 seconds of continuous illumination at 0.46-0.48 mE s−1 m2 (FIGS. 2B-F) The time course observed is dependent on several factors, and may be greater or lesser during in vivo applications. One, it is related to the probability of photon absorption per unit time by membrane-associated RubpyC17, which depends on the concentration of RubpyC17, the partitioning into the membrane, and the photon flux. […]

[3] = tested on: leech ganglion neurons; experiment: Ex vivo leech ganglion neuron recording; assay type: cell-based, Hirudo verbana; settings: ex vivo ganglia
Procedure: Adult leeches Hirudo verbana will be obtained from Niagara Medical Leeches, Inc. (Westbury, N.Y., USA). Groups (20-30) of animals will be kept in glass aquaria with artificial pond water (36 mg/L Instant Ocean salts; Aquarium Systems, Mentor Ohio), in a temperature-controlled room at 16° C. and a 12:12 h light:dark cycle. At the time of experiments, leeches will weigh 1-3 g. Before dissection, the leech will be anesthetized in ice-cold leech saline. Leech saline has the following composition (in mM per liter): NaCl-115, KCl-4, CaCl2-1.8, MgCl2-2, HEPES-10, D-Glucose-5 (Sigma-Aldrich, USA). Individual ganglia will be dissected from the mid-body segments M6-M12, and pinned down in Sylgard-filled dissection box. Medial dorsal longitudinal incision will be made and the blood will be flushed away. Connective tissue and the blood vessel overlaying the ganglion chain will be incised. Dissected ganglia will be transferred to a Petri dish, pinned down in paraffin with six stainless steel pins (dorsal side up). PVNs will be microinjected into the extracellular space of the ganglion with a glass micropipette. Intracellular recording will be performed by penetrating the Retzius neurons with sharp glass electrodes (20-30 MOhm) filled with 3M potassium acetate. […] Neuronal firing will be recorded before and after the injections.

[Ru(bpy)2(bpy-C17)](PF6)2 [RubpyC17]
time cell morphology preserved ([1]; 10 μM RubpyC17): at least 10 minutes | incorporation into plasma membrane (membrane-localized luminescence) ([1]; 10 μM in bath, 488 nm excitation): rapidly and stably incorporates into mammalian cell membranes | membrane luminescence after removal from bath solution ([1]; 10 minutes after RubpyC17 removal): still observed | continuous illumination to reach maximum depolarization ([2]; 0.46-0.48 mE s−1 m2): ~30 s | illumination duration giving membrane potential change ([2]; oxidants (e.g., ferricyanide) present): ≥ 10 s | reversibility of light-induced depolarization ([2]; presence of reductants): appears to be irreversible | illumination duration giving membrane potential change ([2]; reductants (e.g., ascorbate) present): ≥ 25 s | light-induced action potential firing [3]: respond to illumination by firing action potentials; also recorded: light-induced increases in action potential firing
